According to the kinase profiling compilation of Christmann-Franck et al. (2016):
Where “and” joins values, the source holds several entries; their conditions need not be identical. Equal entries are not always repeated.

Experiments:
Experiment in all cases: radiometric filter-binding kinase assay, Kinase HotSpot
Conditions in all cases: compound 0.5 µM; ATP 10 µM
[1] = target: NEK6 (human) (UniProt Q9HC98)
[2] = target: BRSK1 (human) (UniProt Q8TDC3)
[3] = target: GRK4 (human) (UniProt P32298)
[4] = target: BLK (human) (UniProt P51451)
BLK (human), sequence (P51451 whole entry, looked up): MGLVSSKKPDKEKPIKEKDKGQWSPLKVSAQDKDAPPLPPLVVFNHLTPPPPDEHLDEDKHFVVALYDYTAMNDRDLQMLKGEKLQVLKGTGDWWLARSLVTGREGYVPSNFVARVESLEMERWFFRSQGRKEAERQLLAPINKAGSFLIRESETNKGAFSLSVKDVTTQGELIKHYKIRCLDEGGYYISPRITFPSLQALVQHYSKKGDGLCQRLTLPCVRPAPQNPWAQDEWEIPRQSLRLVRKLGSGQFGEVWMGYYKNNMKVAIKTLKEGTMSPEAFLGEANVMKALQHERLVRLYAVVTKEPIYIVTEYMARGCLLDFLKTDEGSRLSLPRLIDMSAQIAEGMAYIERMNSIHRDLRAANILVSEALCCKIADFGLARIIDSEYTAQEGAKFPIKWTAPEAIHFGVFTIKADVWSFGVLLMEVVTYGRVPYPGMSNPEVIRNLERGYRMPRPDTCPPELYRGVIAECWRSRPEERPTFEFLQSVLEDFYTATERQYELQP

[5] = target: MAPK9 (human) (UniProt P45984)
MAPK9 (human), sequence (P45984 whole entry, looked up): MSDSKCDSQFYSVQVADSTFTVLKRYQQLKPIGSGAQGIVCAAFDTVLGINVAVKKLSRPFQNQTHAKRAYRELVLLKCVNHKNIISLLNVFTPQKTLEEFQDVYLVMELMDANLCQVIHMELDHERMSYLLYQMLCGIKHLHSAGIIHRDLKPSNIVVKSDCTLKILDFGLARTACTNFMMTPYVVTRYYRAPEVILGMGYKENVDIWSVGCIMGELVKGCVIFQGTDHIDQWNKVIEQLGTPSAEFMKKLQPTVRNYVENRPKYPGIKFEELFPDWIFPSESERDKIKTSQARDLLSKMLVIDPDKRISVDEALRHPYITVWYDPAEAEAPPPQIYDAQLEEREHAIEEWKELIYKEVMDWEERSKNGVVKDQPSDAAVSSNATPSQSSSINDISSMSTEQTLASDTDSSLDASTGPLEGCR

[6] = target: EPHA1 (human) (UniProt P21709)
[7] = target: PIM1 (human) (UniProt P11309)
[8] = target: CAMKK1 (human) (UniProt Q8N5S9)
[9] = target: PIM3 (human) (UniProt Q86V86)
[10] = target: EPHB3 (human) (UniProt P54753)
EPHB3 (human), sequence (P54753 whole entry, looked up): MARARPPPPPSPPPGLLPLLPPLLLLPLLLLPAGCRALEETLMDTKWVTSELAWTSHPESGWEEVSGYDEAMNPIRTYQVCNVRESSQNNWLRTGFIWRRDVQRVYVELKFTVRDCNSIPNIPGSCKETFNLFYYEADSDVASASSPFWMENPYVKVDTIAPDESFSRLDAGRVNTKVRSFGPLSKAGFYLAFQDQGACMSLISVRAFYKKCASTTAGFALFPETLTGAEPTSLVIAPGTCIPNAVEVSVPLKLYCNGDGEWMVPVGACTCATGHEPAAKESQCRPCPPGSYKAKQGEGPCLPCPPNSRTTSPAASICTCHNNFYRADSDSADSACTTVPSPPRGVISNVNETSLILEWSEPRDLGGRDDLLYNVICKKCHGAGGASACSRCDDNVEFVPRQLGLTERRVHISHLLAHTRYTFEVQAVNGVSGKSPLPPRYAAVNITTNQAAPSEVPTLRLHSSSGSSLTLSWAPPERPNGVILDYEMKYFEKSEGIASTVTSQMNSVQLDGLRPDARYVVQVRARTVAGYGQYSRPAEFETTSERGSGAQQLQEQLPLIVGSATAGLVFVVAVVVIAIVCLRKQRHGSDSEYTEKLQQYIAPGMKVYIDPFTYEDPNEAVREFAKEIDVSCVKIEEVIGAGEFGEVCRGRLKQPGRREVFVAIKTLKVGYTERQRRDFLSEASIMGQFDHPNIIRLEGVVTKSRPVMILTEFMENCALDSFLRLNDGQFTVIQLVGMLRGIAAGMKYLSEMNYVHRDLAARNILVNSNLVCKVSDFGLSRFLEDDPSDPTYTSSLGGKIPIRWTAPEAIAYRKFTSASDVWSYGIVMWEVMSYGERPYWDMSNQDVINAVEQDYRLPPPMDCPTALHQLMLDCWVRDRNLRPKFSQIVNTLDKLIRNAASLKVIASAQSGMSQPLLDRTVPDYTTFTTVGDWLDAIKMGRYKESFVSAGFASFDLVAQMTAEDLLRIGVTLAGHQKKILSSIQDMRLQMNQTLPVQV

[11] = target: RAF1 (human) (UniProt P04049)
[12] = target: PLK1 (human) (UniProt P53350)
[13] = target: AKT1 (human) (UniProt P31749)
[14] = target: EPHA7 (human) (UniProt Q15375)
[15] = target: FGFR4 (human) (UniProt P22455)
FGFR4 (human), sequence (P22455 whole entry, looked up): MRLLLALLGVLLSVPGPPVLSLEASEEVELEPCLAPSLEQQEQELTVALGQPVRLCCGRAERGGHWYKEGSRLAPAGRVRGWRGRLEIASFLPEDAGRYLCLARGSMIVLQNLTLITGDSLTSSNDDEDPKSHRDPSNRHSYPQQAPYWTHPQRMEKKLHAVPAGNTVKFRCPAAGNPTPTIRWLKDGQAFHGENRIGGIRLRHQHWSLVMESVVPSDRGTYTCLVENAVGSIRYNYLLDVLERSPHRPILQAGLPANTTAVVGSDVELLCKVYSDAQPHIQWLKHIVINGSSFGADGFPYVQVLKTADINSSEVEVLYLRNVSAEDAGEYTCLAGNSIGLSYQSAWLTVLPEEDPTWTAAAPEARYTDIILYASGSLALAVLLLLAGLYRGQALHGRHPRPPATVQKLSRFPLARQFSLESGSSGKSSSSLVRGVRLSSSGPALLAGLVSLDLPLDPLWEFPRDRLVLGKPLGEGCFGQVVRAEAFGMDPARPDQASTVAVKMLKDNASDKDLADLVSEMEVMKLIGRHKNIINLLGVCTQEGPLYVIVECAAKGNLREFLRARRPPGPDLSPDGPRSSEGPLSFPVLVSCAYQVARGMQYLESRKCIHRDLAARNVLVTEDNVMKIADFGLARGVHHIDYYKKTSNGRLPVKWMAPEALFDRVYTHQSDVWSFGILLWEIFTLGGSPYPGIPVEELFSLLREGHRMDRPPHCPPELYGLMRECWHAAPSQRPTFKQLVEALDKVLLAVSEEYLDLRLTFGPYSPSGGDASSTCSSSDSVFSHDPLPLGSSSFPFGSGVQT

[16] = target: MARK4 (human) (UniProt Q96L34)
[17] = target: PTK2B (human) (UniProt Q14289)
[18] = target: HIPK1 (human) (UniProt Q86Z02)
[19] = target: MAPK1 (human) (UniProt P28482)
[20] = target: MAP2K1 (human) (UniProt Q02750)
MAP2K1 (human), sequence (Q02750 whole entry, looked up): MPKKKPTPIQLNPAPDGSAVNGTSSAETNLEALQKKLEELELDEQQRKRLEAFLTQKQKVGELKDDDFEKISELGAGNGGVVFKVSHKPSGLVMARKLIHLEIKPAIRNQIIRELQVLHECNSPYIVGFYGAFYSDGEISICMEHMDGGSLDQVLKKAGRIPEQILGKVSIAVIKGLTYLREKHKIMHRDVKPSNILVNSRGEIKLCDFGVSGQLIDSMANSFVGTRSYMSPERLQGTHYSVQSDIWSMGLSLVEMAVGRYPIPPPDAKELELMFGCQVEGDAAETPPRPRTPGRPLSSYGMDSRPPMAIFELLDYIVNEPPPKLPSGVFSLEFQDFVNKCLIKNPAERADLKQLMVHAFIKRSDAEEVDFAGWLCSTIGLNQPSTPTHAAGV

[21] = target: MAP3K14 (human) (UniProt Q99558)
[22] = target: MAP2K2 (human) (UniProt P36507)
[23] = target: EPHB4 (human) (UniProt P54760)
[24] = target: SGK2 (human) (UniProt Q9HBY8)
SGK2 (human), sequence (Q9HBY8 whole entry, looked up): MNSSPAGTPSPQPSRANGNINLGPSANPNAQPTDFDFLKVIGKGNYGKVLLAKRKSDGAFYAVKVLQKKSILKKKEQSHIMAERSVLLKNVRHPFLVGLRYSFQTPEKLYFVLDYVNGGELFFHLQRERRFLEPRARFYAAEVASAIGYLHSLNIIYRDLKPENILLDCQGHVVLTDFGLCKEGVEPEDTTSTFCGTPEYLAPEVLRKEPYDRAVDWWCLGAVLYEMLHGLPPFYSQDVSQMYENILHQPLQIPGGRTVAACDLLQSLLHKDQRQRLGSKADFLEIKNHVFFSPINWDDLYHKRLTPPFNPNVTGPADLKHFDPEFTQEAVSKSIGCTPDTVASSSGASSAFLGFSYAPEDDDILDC

[25] = target: SIK2 (human) (UniProt Q9H0K1)
[26] = target: ACVRL1 (human) (UniProt P37023)
ACVRL1 (human), sequence (P37023 whole entry, looked up): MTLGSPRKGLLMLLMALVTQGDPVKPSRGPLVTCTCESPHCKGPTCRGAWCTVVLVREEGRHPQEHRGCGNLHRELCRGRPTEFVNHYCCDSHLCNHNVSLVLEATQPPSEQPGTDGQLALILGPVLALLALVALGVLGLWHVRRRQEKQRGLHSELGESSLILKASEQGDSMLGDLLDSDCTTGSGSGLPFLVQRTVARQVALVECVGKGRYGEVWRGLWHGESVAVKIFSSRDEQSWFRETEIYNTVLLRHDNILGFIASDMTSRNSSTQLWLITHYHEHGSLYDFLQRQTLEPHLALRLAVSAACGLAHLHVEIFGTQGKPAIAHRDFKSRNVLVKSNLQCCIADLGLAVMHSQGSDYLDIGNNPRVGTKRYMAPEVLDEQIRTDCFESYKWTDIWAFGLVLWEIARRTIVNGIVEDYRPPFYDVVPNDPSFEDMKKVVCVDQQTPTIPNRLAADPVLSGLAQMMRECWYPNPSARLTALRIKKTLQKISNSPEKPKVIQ

[27] = target: DCLK2 (human) (UniProt Q8N568)
[28] = target: PRKACA (human) (UniProt P17612)
[29] = target: MAP3K11 (human) (UniProt Q16584)
[30] = target: MINK1 (human) (UniProt Q8N4C8)
[31] = target: DSTYK (human) (UniProt Q6XUX3)
DSTYK (human), sequence (Q6XUX3 whole entry, looked up): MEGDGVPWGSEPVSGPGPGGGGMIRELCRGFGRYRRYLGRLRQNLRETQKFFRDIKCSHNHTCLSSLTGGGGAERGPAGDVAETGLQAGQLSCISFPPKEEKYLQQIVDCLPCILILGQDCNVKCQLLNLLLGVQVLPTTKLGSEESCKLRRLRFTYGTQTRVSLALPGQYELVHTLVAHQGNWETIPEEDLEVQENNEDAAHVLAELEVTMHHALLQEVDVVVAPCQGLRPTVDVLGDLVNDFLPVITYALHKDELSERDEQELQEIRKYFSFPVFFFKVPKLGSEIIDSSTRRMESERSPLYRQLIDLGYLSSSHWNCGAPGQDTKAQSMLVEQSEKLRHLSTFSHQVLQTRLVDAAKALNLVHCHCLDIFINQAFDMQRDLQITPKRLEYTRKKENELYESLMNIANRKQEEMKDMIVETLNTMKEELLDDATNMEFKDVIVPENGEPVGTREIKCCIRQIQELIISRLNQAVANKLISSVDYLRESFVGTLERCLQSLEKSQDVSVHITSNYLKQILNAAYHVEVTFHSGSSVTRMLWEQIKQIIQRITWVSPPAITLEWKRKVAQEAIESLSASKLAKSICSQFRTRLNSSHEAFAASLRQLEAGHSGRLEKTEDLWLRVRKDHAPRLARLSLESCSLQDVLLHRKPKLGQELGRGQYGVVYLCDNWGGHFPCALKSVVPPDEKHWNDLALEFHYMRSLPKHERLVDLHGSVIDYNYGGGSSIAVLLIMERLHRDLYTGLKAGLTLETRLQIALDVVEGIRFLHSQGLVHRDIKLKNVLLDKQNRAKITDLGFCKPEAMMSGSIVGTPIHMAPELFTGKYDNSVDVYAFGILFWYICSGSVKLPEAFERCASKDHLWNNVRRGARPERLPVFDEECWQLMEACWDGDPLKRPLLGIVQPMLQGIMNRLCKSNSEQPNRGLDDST

[32] = target: CDK5 CDK5R1 p25 (human) (UniProt Q00535+Q15078)
[33] = target: CSF1R (human) (UniProt P07333)
[34] = target: CAMKK2 (human) (UniProt Q96RR4)
[35] = target: LYN (human) (UniProt P07948)
[36] = target: ITK (human) (UniProt Q08881)
[37] = target: ALK (human) (UniProt Q9UM73)
[38] = target: PHKG1 (human) (UniProt Q16816)
[39] = target: OXSR1 (human) (UniProt O95747)
[40] = target: CDK1 CCNB1 (human) (UniProt P06493+P14635)
[41] = target: MAP3K2 (human) (UniProt Q9Y2U5)
[42] = target: TAOK1 (human) (UniProt Q7L7X3)

c1ccc(-c2cnc(Nc3ccc(OCCN4CCCC4)cc3)s2)cc1
residual activity [1]: 102% | residual activity [2]: 97.6% | residual activity [3]: 98.3% | residual activity [4]: 92% | residual activity [5]: 144% | residual activity [6]: 85.3% | residual activity [7]: 100% | residual activity [8]: 56.6% | residual activity [9]: 120% | residual activity [10]: 93.3% | residual activity [11]: 99% | residual activity [12]: 101% | residual activity [13]: 101% | residual activity [14]: 98% | residual activity [15]: 95.6% | residual activity [16]: 58.9% | residual activity [17]: 77.2% | residual activity [18]: 91.3% | residual activity [19]: 83.4% | residual activity [20]: 96.9% | residual activity [21]: 81.9% | residual activity [22]: 90.2% | residual activity [23]: 91.9% | residual activity [24]: 101% | residual activity [25]: 45.6% | residual activity [26]: 108% | residual activity [27]: 87.6% | residual activity [28]: 102% | residual activity [29]: 84.4% | residual activity [30]: 38.7% | residual activity [31]: 90.8% | residual activity [32]: 80.7% | residual activity [33]: 38.4% | residual activity [34]: 89.4% | residual activity [35]: 65.1% and 87.5% | residual activity [36]: 85.2% | residual activity [37]: 97% | residual activity [38]: 45.5% | residual activity [39]: 85.3% | residual activity [40]: 85.1% | residual activity [41]: 104%

O=c1c(-c2ccc(F)cc2)c(-c2ccncc2)[nH]n1-c1ccc(Cl)cc1
residual activity [1]: 106% | residual activity [2]: 88.7% | residual activity [3]: 97.9% | residual activity [4]: 91.6% | residual activity [5]: 6.07% | residual activity [42]: 102% | residual activity [6]: 93.1% | residual activity [7]: 101% | residual activity [8]: 98.5% | residual activity [9]: 89.9% | residual activity [10]: 92.2% | residual activity [11]: 61.4% | residual activity [12]: 98.3% | residual activity [13]: 96.4% | residual activity [14]: 98.5% | residual activity [15]: 92.4% | residual activity [16]: 80% | residual activity [17]: 91.7% | residual activity [19]: 77.3% | residual activity [20]: 70.1% | residual activity [21]: 102% | residual activity [22]: 82.5% | residual activity [23]: 97.2% | residual activity [24]: 94.3% | residual activity [25]: 101% | residual activity [26]: 88.1% | residual activity [27]: 99.9% | residual activity [28]: 90.7% | residual activity [29]: 98% | residual activity [30]: 97.3% | residual activity [31]: 92.9% | residual activity [32]: 76.3% | residual activity [33]: 102% | residual activity [34]: 83% | residual activity [35]: 97.5% and 99.7% | residual activity [36]: 79.7% | residual activity [37]: 83.8% | residual activity [38]: 94.1% | residual activity [39]: 83.3% | residual activity [41]: 98.9%

Cn1cc(/C=C2\C(=O)Nc3ccc(S(N)(=O)=O)cc32)c2ccccc21
residual activity [1]: 98.6% | residual activity [2]: 47.8% | residual activity [3]: 40.4% | residual activity [4]: 42.9% | residual activity [5]: 93.8% | residual activity [42]: 98.3% | residual activity [6]: 101% | residual activity [7]: 96.5% | residual activity [8]: 44.9% | residual activity [9]: 91.6% | residual activity [10]: 93.2% | residual activity [11]: 102% | residual activity [12]: 92.1% | residual activity [13]: 105% | residual activity [14]: 41.3% | residual activity [15]: 74.1% | residual activity [16]: 40.6% | residual activity [17]: 43.1% | residual activity [18]: 97.2% | residual activity [19]: 98.2% | residual activity [20]: 63.6% | residual activity [21]: 123% | residual activity [22]: 94.7% | residual activity [23]: 57.4% | residual activity [24]: 80.7% | residual activity [25]: 81.4% | residual activity [26]: 99.1% | residual activity [27]: 93.2% | residual activity [28]: 104% | residual activity [29]: 9.89% | residual activity [30]: 53.7% | residual activity [31]: 92.5% | residual activity [32]: 58% | residual activity [33]: 82.5% | residual activity [34]: 34.4% | residual activity [36]: 21.4% | residual activity [37]: 72.1% | residual activity [38]: 20.6% | residual activity [39]: 93.7% | residual activity [40]: 49.6% | residual activity [41]: 92.1%
